{
  "source": "patent US12319676B2",
  "about": "“Substituted amide compounds useful as farnesoid X receptor modulators” (BRISTOL-MYERS SQUIBB COMPANY, priority 2019, dated 2025)",
  "data": [
    {"target": "T1, human FXR (Homo sapiens, UniProt Q96RI1)", "T1 construct": "expressed in transfected cells; host or cells: HEK293 cells stably carrying a 5xGal4 response element-luciferase reporter, transiently transfected with pcDNA3.1-Gal4-FXR", "T1 sequence (Q96RI1 262-486 limits assumed)": "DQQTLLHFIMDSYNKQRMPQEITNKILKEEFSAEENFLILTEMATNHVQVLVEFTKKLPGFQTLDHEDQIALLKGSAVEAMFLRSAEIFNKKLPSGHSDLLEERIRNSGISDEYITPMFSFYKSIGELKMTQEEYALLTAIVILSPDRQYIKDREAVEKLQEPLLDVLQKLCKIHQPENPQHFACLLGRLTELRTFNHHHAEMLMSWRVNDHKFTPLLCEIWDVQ", "experiment": "transient human FXR/Gal4-luciferase reporter assay", "assay_type": "cell-based", "conditions": "Gal4-hFXR fusion construct, luciferase reporter in HEK293 cells; overnight incubation; response as percentage of 8 μM GW-4064 control", "description": "The exemplified compounds of the present invention were tested in the transient human FXR/Gal4-luciferase reporter assay, and assay results were reported in Table 1 and Examples 1 to 3 together with other analytical data. A Gal4-hFXR fusion construct reporter system was used as the primary assay to characterize compound activity. A construct including 5 copies of the Gal4 promoter response element upstream of a firefly luciferase reporter cDNA was stably expressed in HEK293 cells. This reporter cell line was maintained in Dulbecco's Modified Eagle's medium (DMEM; Gibco) supplemented with 1% penicillin-streptomycin (P/S) solution, 500 μg/mL Zeocin and 10% charcoal/dextran-treated fetal bovine serum (cs-FBS) at 37° C. in a humidified 5% CO2 atmosphere. Another plasmid was constructed in which the human cytomegalovirus promoter in the pcDNA3.1 vector directs the expression of the cDNA encoding a fusion protein comprised of the DNA binding domain from the Gal4 transcription factor fused to the ligand binding domain from human FXR. The day prior to transfection, the reporter cells in culture are detached from the plate with trypsin and plated into a T75 flask at a sufficient density to achieve approximately 90% confluence the next morning. The transfection reagents are prepared by separately diluting 25 μg of the pcDNA3.1-Gal4-FXR plasmid into 1.87 mL of Opti-MEM (Thermo-Fisher), and 40 μL of Lipofectamine 2000 (Thermo-Fisher) into 1.87 mL of Opti-MEM, and then adding the diluted DNA solution into the diluted Lipofectamine 2000 solution and incubating at room temperature for 15-20 minutes. The mixture is further diluted with 10 mL of a solution comprised of DMEM, 10% cs-FBS, and 1% P/S immediately prior to transferring to the cells. The maintenance culture media is aspirated from the cells and the final transfection mixture is added before the cells are incubated overnight at 37° C. in a humidified 5% CO2 atmosphere. This protocol can be scaled up, and the transiently transfected cells can be cryopreserved in an assay-ready format. For compound testing, 100 nL of the compounds (serial dilutions in DMSO) are dispensed with an Echo acoustic dispenser (Labcyte) into the wells of a Corning/Costar clear bottom 384-well white plate. The transfected cells are harvested, counted, and diluted such that 10-25,000 cells in 25 μL are plated into each well of the 384-well compound assay plate. The compound-treated cells are incubated overnight at 37° C. in a humidified 5% CO2 atmosphere. The next morning 25 μL of Steady-Glo (Promega) are added to each well of the plate, the mixture is incubated for 15 min. with shaking, and luminescence is measured on an Envision (Perkin Elmer) plate reader. Background counts from cells treated with DMSO alone are subtracted from all raw counts, and the corrected values are converted to a percentage of the control response attained with 8 μM GW-4064.", "units": {"EC50": "µM"}, "values": [
      {"molecule": "CCOc1cccc(N(CC23CCC(c4nc(C5CC5)no4)(CC2)CC3)C(=O)C2CC(F)(F)C2)c1", "note": "[Example 53, N-((4-(3-cyclopropyl-1,2,4-oxadiazol-5-yl)bicyclo[2.2.2]octan-1-yl)methyl)-N-(3-ethoxyphenyl)-3,3-difluorocyclobutane-1-carboxamide]", "EC50": 0.441},
      {"molecule": "CC(C)(C)c1nc(C23CCC(CN(C(=O)C45CC(F)(C4)C5)c4cccc(O)c4)(CC2)CC3)no1", "note": "[Example 110, N-((4-(5-(tert-butyl)-1,2,4-oxadiazol-3-yl)bicyclo[2.2.2]octan-1-yl)methyl)-3-fluoro-N-(3-hydroxyphenyl)bicyclo[1.1.1]pentane-1-carboxamide]", "EC50": 0.065},
      {"molecule": "CC(F)(F)c1nc(C23CCC(CN(C(=O)C45CC(F)(C4)C5)c4ccc(F)c(F)c4)(CC2)CC3)no1", "note": "[Example 10, N-((4-(5-(1,1-difluoroethyl)-1,2,4-oxadiazol-3-yl)bicyclo[2.2.2]octan-1-yl)methyl)-N-(3,4-difluorophenyl)-3-fluorobicyclo[1.1.1]pentane-1-carboxamide]", "EC50": 0.124},
      {"molecule": "CCNC(=O)c1cc(N(CC23CCC(c4nc(C(C)(C)C)no4)(CC2)CC3)C(=O)C23CC(F)(C2)C3)ccc1F", "note": "[Example 122, N-((4-(3-(tert-butyl)-1,2,4-oxadiazol-5-yl)bicyclo[2.2.2]octan-1-yl)methyl)-N-(3-(ethylcarbamoyl)-4-fluorophenyl)-3-fluorobicyclo[1.1.1]pentane-1-carboxamide]", "EC50": 0.123},
      {"molecule": "CC(F)(F)c1nc(C23CCC(CN(C(=O)C45CC(F)(C4)C5)c4cc(F)cc(C#N)c4)(CC2)CC3)no1", "note": "[Example 135, N-(3-cyano-5-fluorophenyl)-N-((4-(5-(1,1-difluoroethyl)-1,2,4-oxadiazol-3-yl)bicyclo[2.2.2]octan-1-yl)methyl)-3-fluorobicyclo[1.1.1]pentane-1-carboxamide]", "EC50": 0.018},
      {"molecule": "N#Cc1cccc(N(CC23CCC(c4noc(C(F)(F)F)n4)(CC2)CC3)C(=O)[C@H]2C[C@](O)(C(F)(F)F)C2)c1", "note": "[Example 115, (1S,3S)-N-(3-cyanophenyl)-3-hydroxy-3-(trifluoromethyl)-N-((4-(5-(trifluoromethyl)-1,2,4-oxadiazol-3-yl)bicyclo[2.2.2]octan-1-yl)methyl)cyclobutane-1-carboxamide]", "EC50": 0.436},
      {"molecule": "O=C(N(CC12CCC(c3noc(C4(F)CC4)n3)(CC1)CC2)c1cccc(Br)c1)C12CC(F)(C1)C2", "note": "[Example 34, N-(3-bromophenyl)-3-fluoro-N-((4-(5-(1-fluorocyclopropyl)-1,2,4-oxadiazol-3-yl)bicyclo[2.2.2]octan-1-yl)methyl)bicyclo[1.1.1]pentane-1-carboxamide]", "EC50": 0.02},
      {"molecule": "CC(F)(F)c1nc(C23CCC(CN(C(=O)C4CCC(F)(F)CC4)c4cccc(P(C)(C)=O)c4)(CC2)CC3)no1", "note": "[Example 24, N-((4-(5-(1,1-difluoroethyl)-1,2,4-oxadiazol-3-yl)bicyclo[2.2.2]octan-1-yl)methyl)-N-(3-(dimethylphosphoryl)phenyl)-4,4-difluorocyclohexane-1-carboxamide]", "EC50": 4},
      {"molecule": "COC(=O)c1cccc(N(CC23CCC(c4noc(C(C)(F)F)n4)(CC2)CC3)C(=O)C23CC(F)(C2)C3)c1", "note": "[Example 27, Methyl 3-(N-((4-(5-(1,1-difluoroethyl)-1,2,4-oxadiazol-3-yl)bicyclo[2.2.2]octan-1-yl)methyl)-3-fluorobicyclo[1.1.1]pentane-1-carboxamido)benzoate]", "EC50": 0.072},
      {"molecule": "CC(C)(C)c1nc(C23CCC(CN(C(=O)C45CC(F)(C4)C5)c4cccc(Nc5ccc(OC(F)F)cn5)c4)(CC2)CC3)no1", "note": "[Example 104, N-((4-(5-(tert-butyl)-1,2,4-oxadiazol-3-yl)bicyclo[2.2.2]octan-1-yl)methyl)-N-(3-((5-(difluoromethoxy)pyridin-2-yl)amino)phenyl)-3-fluorobicyclo[1.1.1]pentane-1-carboxamide]", "EC50": 0.221},
      {"molecule": "CC(F)(F)c1nc(C23CCC(CN(C(=O)C45CC(F)(C4)C5)c4cccc(C(F)(F)F)c4)(CC2)CC3)no1", "note": "[Example 14, N-((4-(5-(1,1-difluoroethyl)-1,2,4-oxadiazol-3-yl)bicyclo[2.2.2]octan-1-yl)methyl)-3-fluoro-N-(3-(trifluoromethyl)phenyl)bicyclo[1.1.1]-pentane-1-carboxamide]", "EC50": 0.029},
      {"molecule": "COC(=O)COc1cccc(N(CC23CCC(c4ccc5c(cnn5C)c4)(CC2)OC3)C(=O)C2CCOCC2)c1", "note": "[Example 81, Methyl 2-(3-(N-((1-(1-methyl-1H-indazol-5-yl)-2-oxabicyclo[2.2.2]octan-4-yl)methyl)tetrahydro-2H-pyran-4-carboxamido)phenoxy) acetate]", "EC50": 4.36},
      {"molecule": "COc1cc(N(CC23CCC(c4noc(C(C)(F)F)n4)(CC2)CC3)C(=O)C23CC(F)(C2)C3)ccn1", "note": "[Example 17, N-((4-(5-(1,1-difluoroethyl)-1,2,4-oxadiazol-3-yl)bicyclo[2.2.2]octan-1-yl)methyl)-3-fluoro-N-(2-methoxypyridin-4-yl)bicyclo[1.1.1]pentane-1-carboxamide]", "EC50": 0.149},
      {"molecule": "NC(=O)c1nc(C23CCC(CN(C(=O)C45CC(F)(C4)C5)c4cccc(Br)c4)(CC2)CC3)no1", "note": "[Example 140, 3-(4-((N-(3-bromophenyl)-3-fluorobicyclo[1.1.1]pentane-1-carboxamido)methyl)bicyclo[2.2.2]octan-1-yl)-1,2,4-oxadiazole-5-carboxamide]", "EC50": 0.721},
      {"molecule": "CC(F)(F)c1nc(C23CCC(CN(C(=O)C4CCC(F)(F)CC4)c4cccc(C(F)(F)F)c4)(CC2)CC3)no1", "note": "[Example 16, N-((4-(5-(1,1-difluoroethyl)-1,2,4-oxadiazol-3-yl)bicyclo[2.2.2]octan-1-yl)methyl)-4,4-difluoro-N-(3-(trifluoromethyl)phenyl)cyclohexane-1-carboxamide]", "EC50": 0.315},
      {"molecule": "COc1cccc(N(CC23CCC(c4nc(C5CC5)no4)(CC2)CC3)C(=O)[C@H]2C[C@](O)(C(F)(F)F)C2)c1", "note": "[Example 57, (1S,3S)—N-((4-(3-cyclopropyl-1,2,4-oxadiazol-5-yl)bicyclo[2.2.2]octan-1-yl)methyl)-3-hydroxy-N-(3-methoxyphenyl)-3-(trifluoromethyl)cyclobutane-1-carboxamide]", "EC50": 0.304},
      {"molecule": "CC(F)(F)c1nc(C23CCC(CN(C(=O)NC[C@H](F)C(C)(C)O)c4cccc(Br)c4)(CC2)CC3)no1", "note": "[Example 131, (S)-1-(3-bromophenyl)-1-((4-(5-(1,1-difluoroethyl)-1,2,4-oxadiazol-3-yl)bicyclo[2.2.2]octan-1-yl)methyl)-3-(2-fluoro-3-hydroxy-3-methylbutyl)urea]", "EC50": 0.228},
      {"molecule": "CCOc1ccc(Nc2cccc(N(CC34CCC(c5noc(C(C)(C)C)n5)(CC3)CC4)C(=O)C34CC(F)(C3)C4)c2)cc1", "note": "[Example 85, N-((4-(5-(tert-butyl)-1,2,4-oxidial-3-yl)bicyclo[2.2.2]octan-1-yl)methyl)-N-(3-((4-ethoxyphenyl)amino)phenyl)-3-fluorobicyclo[1.1.1]pentane-1-carboxamide]", "EC50": 0.608},
      {"molecule": "CC(C)(Oc1cccc(N(CC23CCC(c4noc(C(C)(C)C)n4)(CC2)CC3)C(=O)C23CC(F)(C2)C3)c1)C(=O)O", "note": "[Example 113, 2-(3-(N-((4-(5-(tert-butyl)-1,2,4-oxadiazol-3-yl)bicyclo[2.2.2]octan-1-yl)methyl)-3-fluorobicyclo[1.1.1]pentane-1-carboxamido)phenoxy)-2-methylpropanoic acid]", "EC50": 2},
      {"molecule": "CC(C)(C)c1noc(C23CCC(CN(C(=O)C4CC(F)(F)C4)c4cccc(C#N)c4)(CC2)CC3)n1", "note": "[Example 41, N-((4-(3-(tert-butyl)-1,2,4-oxadiazol-5-yl)bicyclo[2.2.2]octan-1-yl)methyl)-N-(3-cyanophenyl)-3,3-difluorocyclobutane-1-carboxamide]", "EC50": 0.171}
    ]}
  ]
}
